# Reference: patent publication US20240057600A1, “METHODS FOR CONTROLLING OR PREVENTING INFESTATION OF PLANTS BY A PHYTOPATHOGENIC MICROORGANISM OF THE GENUS ASPERGILLUS” (priority 2020, published 2024)
# Read-outs that look alike come from different tables or passages of the source.
# Key:
# Aspergillus niger = experiment: Peanut field trial, seed treatment, pest incidence 42 days after planting; format: in vivo, Aspergillus niger on Arachis hypogaea (peanut)
# Description: A peanut field trial was carried out on May 11, 2020 in Malpur, Gujarat, India, to evaluate the efficacy of different compounds against Aspergillus sp. fungi. The disease symptoms started to occur 4 weeks after planting and an assessment on disease incidence (% infected plants) was done 42 days after planting.
# Pest Incidence, 42 Days after Planting
# [1] = system: Aspergillus flavus isolates; experiment: In vitro mycelial growth inhibition assay on amended agar; format: cell-based; details: 120 h, 5 days incubation, 22 C
# Description: (§1) The sensitivity to cyclobutrifluram of 104 isolates of Aspergillus niger and 31 isolates of Aspergillus flavus was determined under in vitro lab conditions using a mycelial growth inhibition assay. Isolates of Aspergillus niger were retrieved from infected seeds or infected plants with clear symptoms of crown rot disease. Isolates of Aspergillus flavus were collected from infected seeds. The sensitivity to azoxystrobin of the isolates was determined under in vitro conditions using a conidial germination inhibition assay. Sensitivity tests were conducted in vitro using agar medium amended with cyclobutrifluram or azoxystrobin at the following concentrations: 0, 0.001, 0.01, 0.1, 1, and 10 mg a.i./L. The plates were incubated at room temperature (22 C). The mycelial growth of the colonies growing on plates amended or not with cyclobutrifluram was determined after 5 days of incubation. The conidial germination on agar plates amended or not with azoxystrobin was determined after 18 hours of incubation. A conidium was rated as germinated, if a normally developing germ tube had at least the length of a conidium. […] Effective dose values (EC50) are expressed in mg of cyclobutrifluram or azoxystrobin active ingredient/L. [table] [table]
# [2] = system: Aspergillus niger isolates; experiment: as above; format: cell-based; details: 120 h, 5 days incubation, 22 C
# Description: as §1
# [3] = system: Aspergillus flavus isolates; experiment: In vitro conidial germination inhibition assay on amended agar; format: cell-based; details: 31 A. flavus isolates, 18 hours incubation; for EC50 values, maximum: highest concentration used 10 mg a.i./L
# Description: as §1
# [4] = system: Aspergillus niger isolates; experiment: as above; format: cell-based; details: 104 A. niger isolates, 18 hours incubation; for EC50 values, minimum: 22 C; for EC50 values, maximum: highest concentration used 10 mg a.i./L
# Description: as §1
SMILES,"Pest incidence (LS Means) (Aspergillus niger; peanut GG 20, field trial Malpur, Gujarat, India, seed treatment, 42 days after planting, rates g AI/100 kg: VITAVAX 225, cyclobutrifluram 60, VIBRANCE MAXX 150, EVERGOL XTEND 30.8)","% efficacy based on disease incidence (Aspergillus niger; peanut GG 20, field trial, seed treatment, 42 days after planting, rates g AI/100 kg: VITAVAX 225, cyclobutrifluram 60, VIBRANCE MAXX 150, EVERGOL XTEND 30.8) [%]","Aspergillus niger pest incidence compared to the untreated and standard treatments (Aspergillus niger; treatment 3, 60 g AI/100 kg seed treatment, 42 days after application)","EC50 ([1]; 31 A. flavus isolates from infected peanut seeds, read-out: EC50 values, mean (geometric mean)) [µg/mL]","EC50 ([1]; 31 A. flavus isolates, read-out: EC50 values, maximum) [µg/mL]","EC50 ([1]; 31 A. flavus isolates, read-out: EC50 values, minimum) [µg/mL]","EC50 ([2]; 104 A. niger isolates from infected peanut seeds or plants, read-out: EC50 values, mean (geometric mean)) [µg/mL]","EC50 ([2]; 104 A. niger isolates, read-out: EC50 values, maximum) [µg/mL]","EC50 ([2]; 104 A. niger isolates, read-out: EC50 values, minimum) [µg/mL]","EC50 values, minimum ([3]; 22 C) [mg · ai/L]","EC50 values, maximum [3] [mg · ai/L]","EC50 values, maximum ([3]; listed as azoxystrobin)","EC50 values, minimum [4] [mg · ai/L]","EC50 values, minimum ([4]; listed as azoxystrobin) [mg · ai/L]","EC50 values, maximum [4] [mg · ai/L]","EC50 values, maximum ([4]; listed as azoxystrobin)"
"O=C(N[C@@H]1CC[C@@H]1c1ccc(Cl)cc1Cl)c1cccnc1C(F)(F)F (racemic) [Cyclobutrifluram, cyclobutrifluram]","0.42, % infected plants",97.03,significantly lower,0.108,0.7,0.0262,0.082,0.703,0.00924,–,–,–,–,–,–,–
"CO/C=C(/C(=O)OC)c1ccccc1Oc1cc(Oc2ccccc2C#N)ncn1 [Azoxystrobin, azoxystrobin]",–,–,–,–,–,–,–,–,–,0.003457,>10,more than 10 mg · ai/L,<0.001,0.000793,>10,more than 10 mg · ai/L
